Data published in the METLIN SMRT retention time set (Domingo-Almenara et al. 2019).

Assay: gradient 5% acetonitrile 3 min, to 50% in 2 min, to 85% in 15 min, held 3 min, 100 µL/min
Conditions: column: Zorbax Extend-C18 2.1 x 50 mm; eluents: water / acetonitrile, 0.1% formic acid
Method in brief: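 Values are retention times taken from adduct peaks that software picked and an analyst inspected. The pure standards were run as mixtures of ~100 molecules on HPLC linked to a quadrupole time-of-flight mass spectrometer, in positive and negative ionization mode. A Zorbax Extend-C18 column (2.1 × 50 mm, 1.8 μm) was used at 100 μL/min with water and acetonitrile, each including 0.1% formic acid.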

| SMILES | RP-LC retention time |
| --- | --- |
| Cc1noc(C)c1C1CCCN1C(=O)Cc1ccc(Cl)cc1 (centres undefined) | 809 s |
| CCCN1C(=O)c2cc(S(=O)(=O)NCc3ccco3)ccc2Oc2cccnc21 | 952 s |
| CC(C)n1cnnc1CC1CCN(C(=O)C2CCN(S(=O)(=O)N3CCOCC3)CC2)CC1 | 614 s |
| CCc1ccc(-c2nc(-c3ccc(-n4cccn4)nc3)no2)cc1 | 1470 s |
| O=C(COc1ccccc1)Nc1nonc1NC(=O)COc1ccccc1 | 854 s |
| CN(CC(=O)Nc1nnc(SCc2ccc(Cl)cc2Cl)s1)S(C)(=O)=O | 874 s |
| O=C(Nc1cnn(-c2ncc(N3CCSCC3)cn2)c1)NC1CCCCC1 | 759 s |
| Cc1nc(-c2cc(S(=O)(=O)N3CCC(C(=O)Nc4cccc(C#N)c4)CC3)c(C)s2)no1 | 949 s |
| CC(C)n1c(-c2cccc(C(=O)NCc3ccncc3)c2)nc2cccnc21 | 599 s |
| CN1C(=O)c2cc(C(=O)NCc3ccc(Cl)cc3)nn2CC1(C)C(=O)NCc1ccc(F)cc1 (centres undefined) | 805 s |
| COCc1noc(CC2CCOC3(CCN(C(=O)C4(c5ccccc5)CC4)CC3)C2)n1 (centres undefined) | 820 s |
| CCCN1C(=O)c2c(C(=O)NCc3ccc(F)cc3)ncn2CC1(C)C(=O)NC1CCCC1 (centres undefined) | 796 s |
| CN1C(=O)CCC2(CNC(=O)c3ccnn3C)CCC=C12 (centres undefined) | 639 s |
| CC(C)NC(=O)c1ccc2c(c1)N(S(C)(=O)=O)CC2 | 691 s |
| CCSc1nc2ccc(NS(=O)(=O)c3cccc(Cl)c3)cc2s1 | 1070 s |
| COc1cc(NC(=O)c2csc(-c3cn(C)c4ncccc34)n2)cc(OC)c1 | 1010 s |
| O=C(NCCSc1ncc(-c2ccc(F)cc2)[nH]1)c1ccc(Br)o1 | 596 s |
| CCNc1cc(N2CCC(CCC(=O)Nc3ccc(OCC)cc3)CC2)ncn1 | 682 s |
| Cc1ccccc1NC(=O)C(=O)c1ccc[nH]1 | 862 s |

| SMILES | RP-LC retention time |
| --- | --- |
| CCN1C(=O)c2cccnc2Sc2cc(CNC(=O)Cc3ccc(F)cc3)ccc21 | 761 s |
| COc1ccc(CCc2nc3nccc(-c4ccc(OC)cc4)n3n2)cc1 | 943 s |
| CCCN1C(=O)c2cc(S(=O)(=O)N3CCCCCC3)ccc2Oc2cccnc21 | 1180 s |
| CN(C)c1cccc(C(=O)Nc2cc(-c3ccccn3)no2)c1 | 776 s |
| O=C(N1CCC(NS(=O)(=O)c2cccc(F)c2)CC1)N1C[C@H]2C[C@H](C1)[C@H]1CCCC(=O)N1C2 | 704 s |
| O=C(Nc1cccc(Br)c1)N1CCC(n2cnnc2C2CC2)C1 (centres undefined) | 668 s |
| CC(NC(=O)CN1CN(c2ccccc2)C2(CCN(C(=O)CC(C)(C)C)CC2)C1=O)c1ccccc1 (centres undefined) | 931 s |
| CN(C)C[C@@H]1CN(c2ncccn2)C[C@H]1NC(=O)c1ccc(Cl)s1 | 605 s |
| O=C(NCCc1c[nH]c2ccccc12)c1cc(=O)c(OCc2ccc(F)cc2)co1 | 765 s |
| COc1cc(OC)c(NC(=O)N2CCOc3ccccc32)cc1Cl | 1010 s |
| CC1Cc2ccccc2N1C(=O)CC1CCN(S(=O)(=O)c2ccc3c(c2)oc(=O)n3C)CC1 (centres undefined) | 965 s |
| Cc1cc(C(=O)Nc2ccc3c(c2)OCCO3)no1 | 681 s |
| CC1CCC(NC(=O)C(Cc2c[nH]c3ccccc23)NC(=O)C2CCC(C)CC2)CC1 (centres undefined) | 1100 s |
| O=C(Cc1nnc2c(-c3nc(C4CC4)no3)cccn12)N1CCSCC1 | 653 s |
| CS(=O)(=O)N1CC(C(=O)Nc2ccccc2-c2ccccc2)Oc2ccccc21 (centres undefined) | 1090 s |
| Cc1cc(C)n(-c2ccnc(NCc3ccc(Cl)cc3)n2)n1 | 928 s |
| Cc1cc2nn(CC(=O)Nc3cc(F)cc(F)c3)c(=O)n2c(Nc2ccc(F)c(C)c2)n1 | 1070 s |
| CCOC(=O)C1=C(C)NC2=C(C(=O)C(C(=O)OC)C(C)C2)C1c1ccccc1Cl (centres undefined) | 965 s |
| Cc1ccc2ncn(C3CCN(S(=O)(=O)c4ccccc4F)CC3)c(=O)c2c1 | 940 s |

| SMILES | RP-LC retention time |
| --- | --- |
| CCc1onc(C)c1C1CCCN1C(=O)Nc1ccc(C)c(F)c1 (centres undefined) | 879 s |
| Cc1ccc(S(=O)(=O)N2C(=O)CCC2C(=O)N(C)C2CCCCC2)cc1 (centres undefined) | 916 s |
| COc1cccc(NC(=O)Cn2c(=O)c3cc(-c4ccco4)nn3c3ncccc32)c1 | 807 s |
| O=C(NCCN1CCOCC1)c1sc2cc(Cl)ccc2c1Cl | 590 s |
| O=C(NC1CC1)[C@@H]1C[C@H](Oc2cccnc2)CN1C(=O)c1cnccn1 | 526 s |
| Cc1ccc(C)c(NC(=O)c2cc(C(C)C)n3nccc3n2)c1 | 1240 s |
| COC(=O)c1cc2n(n1)CC(C)(C(=O)NC1CCCC1)N(c1ccc(F)cc1C)C2=O (centres undefined) | 845 s |
| CC(C)CN1CCN(C(=O)c2cn(-c3ccc(-c4nc(C(C)(C)C)no4)cn3)cn2)CC1 | 699 s |
| COCCn1nnnc1C1CC2(CCOCC2)C(=O)N1Cc1ccc(SC)cc1 (centres undefined) | 777 s |
| CC(C)CNC(=O)CC1Sc2ncccc2N(CC(C)C)C1=O (centres undefined) | 791 s |
| Cc1ccc2c(Nc3ccc(F)c(Cl)c3)c(C(=O)N3CCOCC3)cnc2n1 | 601 s |
| CC(C)CN(Cc1cccnc1)C1CN(C(=O)NCc2ccc(F)cc2)C1 | 640 s |
| O=C(Nc1ccc(F)cc1F)NC1CCN(c2ccc(F)cc2)C1=O (centres undefined) | 823 s |
| CCCNC(=O)c1n[nH]c2c1CC(C)CC2 (centres undefined) | 740 s |
| CCC(C)NS(=O)(=O)c1c(C)nn(-c2ccc(-c3ccc(C)cc3)nn2)c1C (centres undefined) | 1040 s |
| O=C(CN1C(=O)C2CCCCN2c2ccc(S(=O)(=O)N3CCCC3)cc21)NCCN1CCCC1 (centres undefined) | 636 s |
| COc1cccc(NC(=O)c2c(O)c3cccnc3n(-c3ccccc3)c2=O)c1 | 1220 s |
| Cc1cc2c(c(=O)n(-c3ccccc3)c(=O)n2CC(=O)Nc2cccc(Br)c2)n1C | 836 s |

The next lines start with the values.

| RP-LC retention time | SMILES |
| --- | --- |
| 1090 s | CCOc1ccc(C2Cn3nnc(-c4nc(-c5ccccc5OC)no4)c3CO2)cc1 (centres undefined) |
| 554 s | CN(C(=O)Cn1c(CCO)nc2ccccc21)c1ccccc1 |
| 1080 s | CCN1C(=O)COc2ccc(-c3csc(NC(=O)c4ccc(Br)cc4)n3)cc21 |
| 855 s | Cc1nc(-c2ccccc2)c(-c2ccncc2)o1 |
| 1290 s | Cc1ccc(CNC(=O)C2CCCN(c3nc4c(s3)c(C)nn4-c3ccc(Cl)cc3)C2)cc1 (centres undefined) |
| 732 s | O=C(NCc1ccccc1)C1CCCN(c2ncnc3c2nc2n3CCCCC2)C1 (centres undefined) |
| 718 s | Cc1nc2ccn(Cc3ccco3)c(=O)c2cc1C(=O)NCc1ccco1 |
| 1040 s | Cc1cc2nn(CC(=O)Nc3cc(F)cc(F)c3)c(=O)n2c(Nc2ccccc2)n1 |
| 860 s | N#CCc1nc(-c2cc3ccccc3o2)cs1 |
| 572 s | Cc1noc(C)c1CN1CCN(C(=O)c2cc(-c3ccco3)on2)CC1 |
| 1020 s | COc1cccc2c1oc(=O)c1c(NC(C)=O)nc3c(c12)CCCCC3 |
| 754 s | O=C(c1ccccc1)N1CCN(c2cc(-c3cccs3)[nH]n2)CC1 |
| 1260 s | CCCCOc1ccc(-c2ccc(=O)n(Cc3nc(-c4ccccc4Br)no3)n2)cc1 |
| 1000 s | O=S(=O)(c1cccc2nsnc12)N1CCc2nc(-c3ccccc3)ncc2C1 |
| 639 s | O=C(c1ccc2c(c1)N(Cc1ccc(F)cc1)C(=O)CO2)N1CCN(c2ccccn2)CC1 |
| 804 s | CCSc1nnc(NC(=O)Cc2csc(NC(=O)c3ccc4c(c3)OCO4)n2)s1 |
| 1030 s | CCc1sc(NC(=O)c2cc3c([nH]c2=O)CCCC3=O)nc1-c1ccc(C)c(C)c1 |

| RP-LC retention time | SMILES |
| --- | --- |
| 701 s | Cc1ccn2c(Nc3ccccc3C)c(-c3ccccc3O)nc2c1 |
| 777 s | CCC(C(=O)NCc1ccco1)n1c2ccccc2c2cnn(C)c(=O)c21 (centres undefined) |
| 865 s | Cc1cccc(C)c1Nc1c(-c2ccccc2)nc2cnccn12 |
| 705 s | Nc1cc(C2CCN(C(=O)c3ccc(Cl)cc3)CC2)no1 |
| 1000 s | CCN1C(=O)COc2ccc(-c3nc(NC(=O)c4ccccc4Cl)sc3C)cc21 |
| 746 s | CCOCCCNC(=O)c1nc(Nc2ccc(C)cc2)c2ccccc2n1 |
| 920 s | Cc1nc2cc(-c3noc(-c4ccc5c(c4)OCO5)n3)ccc2n(C)c1=O |
| 690 s | COc1ccccc1NC(=O)Cn1nc2c3sc(N(C)C)nc3ncn2c1=O |
| 714 s | COc1ccc(Cn2c(C)c(CNCc3ccc(C)o3)c(C(=O)O)c2C)cc1 |
| 872 s | CCC(=O)N1CCc2c(C(=O)N3CCN(c4ccccc4F)CC3)cccc21 |
| 885 s | COc1ccccc1CNC(=O)CN1C(=O)C2CCCCN2c2ccc(S(=O)(=O)N(C)C)cc21 (centres undefined) |
| 886 s | CCOc1cccc(CNC(=O)c2cn3cc(Cl)ccc3n2)c1 |
| 646 s | Cc1ccccc1NS(=O)(=O)c1cc2n(c1)CCCNC2=O |
| 1080 s | Cc1ccc(Cn2c(=O)c(N3CCCC(C(=O)NCCc4c(C)noc4C)C3)nc3ccccc32)cc1 (centres undefined) |
| 736 s | O=c1nc(SCc2csc(-c3ccccc3)n2)c2c(n1CCCO)CCC2 |
| 917 s | COCc1cc(=O)n(CC(=O)Nc2ccc(F)c(Cl)c2)c(N2CCOCC2)n1 |
